Measurements as given in PubChem BioAssay AID850 (SRMLSC, 2007).
Active and inactive are the calls of the source. No rule for the calls is given here.

Legend:
[1] = concentration-response yeast growth inhibition under permissive conditions, counter-assay for yeast lifespan-shortening chemical project (AID 850); conditions: Saccharomyces cerevisiae growth inhibition, permissive control, measured here: maximum growth inhibition, stronger effect = higher value;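 also: growth read as optical density after one day of incubation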
[2] = test system: Saccharomyces cerevisiae growth inhibition, permissive control; assay: as above

Structure (SMILES)	IC50 [2]	inhibition ([1]; at 50 µM) [%]	other results
CC(C)Sc1nc(N)nc(-c2cccs2)c1C#N	> 100 µM (inactive)		inhibition ([1]; at 1.563 µM): 14.6%
Oc1c(Br)cc(Cl)cc1C=Nc1ccccc1Br	7.27 µM	100	
O=C(CSC1=NS(=O)(=O)c2ccccc21)Nc1ccccc1	> 100 µM (inactive)	17.7	
O=[N+]([O-])c1ccc(CN2CCCCCC2)s1	> 100 µM (inactive)		inhibition ([1]; at 25 µM): 28.2%
Cc1ccc(/C=C2\C(=O)NC(=S)N(c3ccccc3F)C2=O)s1	> 100 µM (inactive)		inhibition ([1]; at 6.25 µM): 29%
O=C(ONC1=NCCCCC1)c1ccc(Cl)cc1	7.02 µM	99.8	
Cn1c(N2CCOCC2)c(/C=N/OC(=O)c2ccc(F)cc2)c2ccccc21	> 100 µM (inactive)	19.1	
CC1(C)C(C=C(Cl)Cl)C1C(=O)Nc1ccc([N+](=O)[O-])cc1 (configuration not stated)	> 100 µM (inactive)	15.4	
COc1cc(-c2nc3ccc4ccccc4c3c3c2CCC3)ccc1O	> 100 µM (inactive)		inhibition ([1]; at 3.125 µM): 11.9%
Cc1sc2ncnc(N/N=C/c3ccccc3O)c2c1C	32.2 µM	94.2	
OC(CNCCC1C=Nc2ccccc21)Cn1c2ccc(Cl)cc2c2cc(Cl)ccc21 (configuration not stated)	18.4 µM	100	
COc1ccc(/C=C/C(=O)c2cc(Br)ccc(=O)c2O)cc1	16.1 µM	93.6	
O=C(O)CCn1cc(/C=C/C(=O)c2ccc(Cl)cc2)c(-c2ccc(Br)cc2)n1	> 100 µM (inactive)		inhibition ([1]; at 12.5 µM): 15.3%
C=CCn1c(C)cc(C(=O)CSc2nnc(NCc3ccccc3)s2)c1C	> 100 µM (inactive)	22.4	
O=C(O)CCC(=O)N1CCN(c2nc(-c3ccccc3Cl)c3cc(Br)ccc3n2)CC1	32 µM	98.3	
CC(C)C(=O)NC(c1ccccc1)c1cc([N+](=O)[O-])c2cccnc2c1O (configuration not stated)	29.6 µM	93.4	
Cc1nn(-c2ccc(F)cc2)c2sc(C(=O)O)cc12	49.1 µM	60.6	
O=[N+]([O-])c1cccc(/C=N/n2cnnc2)c1O	21 µM	76.8	
COc1cccc(/C=N/Nc2ncc(C(F)(F)F)cc2Cl)c1O	> 100 µM (inactive)	29.3	
Cc1cc(C)cc(NS(=O)(=O)c2cnc(Cl)c(Cl)c2)c1	> 100 µM (inactive)		inhibition ([1]; at 12.5 µM): 19.5%
O=C1c2ccc3c4c(ccc(c24)C(=O)N1NC(=O)C(F)(F)F)CC3	> 100 µM (inactive)		inhibition ([1]; at 0.195 µM): 15.2%

Structure (SMILES)	IC50 [2]	inhibition ([1]; at 50 µM) [%]	other results
CCC1C(=O)N=C(SCC(=O)Nc2ccccc2)NC1=O (configuration not stated)	46.5 µM	52.5	
O=[N+]([O-])c1cc(CN2CCCC2)c2cccnc2c1O	> 100 µM (inactive)	21	
CCOC(=O)c1c(N)sc(C(O)(C(F)(F)F)C(F)(F)F)c1-c1ccc(Cl)cc1	> 100 µM (inactive)		inhibition ([1]; at 0.781 µM): 7.92%
Cc1cc(O)c(/C=N/Nc2ccc(Cl)cc2)c(=O)o1	3.93 µM		inhibition ([1]; at 25 µM): 98.2%
Cc1c(N=Cc2cc(Br)cc(Br)c2O)cccc1C(=O)O	6.96 µM	99	
O=C1ON=C(c2ccccc2)/C1=C/c1ccc(OS(=O)(=O)c2ccccc2)cc1	> 100 µM (inactive)	11.6	
COc1ccc(-c2n[nH]c(C)c2-c2ccc(Cl)cc2)c(O)c1	33.9 µM	99	
Cc1ncc(CC(=O)n2cc(C(=O)c3cc(Cl)ccc3O)cn2)s1	5.42 µM	100	
COc1ccc(NC(=O)C2CCCN2S(=O)(=O)c2cccc3cccnc23)c(OC)c1 (configuration not stated)	5.82 µM	102	
CCc1ccc2c(c1)C1(NN=C(c3ccccc3)S1)C(=O)N2 (configuration not stated)	27.5 µM	97.5	
CC/C(C)=N/Nc1cccc([N+](=O)[O-])c1	4.11 µM	98.4	
CCSc1nc(N)nc(-c2cccs2)c1C#N	35.2 µM	70.4	
O=C1OCC(CO)(CO)N=C1NNc1cc(Cl)ccc1Cl	11.4 µM	99.2	
COc1ccccc1-c1nnc(NC(=O)C(C)SC2=NCCS2)s1 (configuration not stated)	> 100 µM (inactive)		inhibition ([1]; at 12.5 µM): 16.8%
O=C1c2cccc3c(Cl)ccc(c23)C(=O)N1O	39.6 µM	61.6	
O=C1C(=O)c2ccccc2-c2ccccc21	1.01 µM	99.2	
CNc1nnc(-c2cc3cc(Cl)ccc3oc2=O)s1	> 100 µM (inactive)		inhibition ([1]; at 25 µM): 12.5%
Cc1c(Cl)cccc1N=Cc1ccc([N+](=O)[O-])s1	> 100 µM (inactive)	9.36	
CCOC(=O)c1c(N)sc(C(O)(C(F)(F)F)C(F)(F)F)c1-c1ccc(F)cc1	> 100 µM (inactive)		inhibition ([1]; at 0.098 µM): 8.89%
CCSc1ncc(/C=N/Nc2ccc(Cl)cc2)n1C	6.82 µM	94.7	
